Measurements from ChEMBL document CHEMBL5212743, “Selectivity Literature for EUbOPEN Chemogenomics Library wave 3” (2023).
Each block holds one molecule with its values, some of them ahead of it.

Key:
[1] = target: T1, STE20-like serine/threonine-protein kinase (Homo sapiens, UniProt Q9H2G2); assay: Selectivity interaction (ScanMAX (DiscoverX)) EUB0000232b SLK; conditions: at 1 µM
[2] = target: T1, STE20-like serine/threonine-protein kinase; assay: Selectivity interaction (ScanMAX (DiscoverX, competition-binding assay)) EUB0000232b SLK
[3] = tested on: Epidermal growth factor receptor (Homo sapiens), P00533 [L858R]; assay: (§1) Selectivity interaction (ScanMAX (DiscoverX)) EUB0000232b EGFR; conditions: at 1 µM
[4] = target: T2, Epidermal growth factor receptor (Homo sapiens, UniProt P00533); assay: as §1; conditions: at 1 µM
[5] = target: T2, Epidermal growth factor receptor; assay: Selectivity interaction (ScanMAX (DiscoverX, competition-binding assay)) EUB0000232b EGFR
[6] = target: T2, Epidermal growth factor receptor; assay: as §1; conditions: at 1 µM; remark: listed apart in the source
[7] = target: T3, Tyrosine-protein kinase Lck (Homo sapiens, UniProt P06239); assay: Selectivity interaction (ScanMAX (DiscoverX)) EUB0000232b LCK; conditions: at 1 µM
[8] = target: T3, Tyrosine-protein kinase Lck; assay: Selectivity interaction (ScanMAX (DiscoverX, competition-binding assay)) EUB0000232b LCK
[9] = target: T4, Tyrosine-protein kinase SYK (Homo sapiens, UniProt P43405); assay: Selectivity interaction (ScanMAX (DiscoverX)) EUB0000232b SYK; conditions: at 1 µM
[10] = target: T4, Tyrosine-protein kinase SYK; assay: Selectivity interaction (ScanMAX (DiscoverX, competition-binding assay)) EUB0000232b SYK
[11] = target: T5, Calcium/calmodulin-dependent protein kinase type 1B (Homo sapiens, UniProt Q6P2M8); assay: Selectivity interaction (KinomeScan (DiscoverX)) EUB0000312b PNCK; conditions: at 1 µM
[12] = target: T5, Calcium/calmodulin-dependent protein kinase type 1B; assay: Selectivity interaction (NanoBRET assay (HEK293T cells)) EUB0000312b PNCK
[13] = target: Mitogen-activated protein kinase 9 (Homo sapiens, UniProt P45984); assay: Selectivity interaction (KinomeScan (DiscoverX)) EUB0000312b MAPK9; conditions: at 1 µM
[14] = target: T6, Epithelial discoidin domain-containing receptor 1 (Homo sapiens, UniProt Q08345); assay: Selectivity interaction (KinomeScan (DiscoverX)) EUB0000312b DDR1; conditions: at 1 µM
[15] = target: T6, Epithelial discoidin domain-containing receptor 1; assay: Selectivity interaction (NanoBRET assay (HEK293T cells)) EUB0000312b DDR1
[16] = target: T7, Tyrosine-protein kinase JAK1 (Homo sapiens, UniProt P23458); assay: Selectivity interaction (KinomeScan (DiscoverX)) EUB0000312b JAK1@kinase 1; conditions: at 1 µM
[17] = target: T7, Tyrosine-protein kinase JAK1; assay: Selectivity interaction (NanoBRET assay (HEK293T cells)) EUB0000312b JAK1@kinase 1
[18] = target: T8, Phosphatidylinositol 4,5-bisphosphate 3-kinase catalytic subunit alpha isoform (Homo sapiens, UniProt P42336); assay: Selectivity interaction (KinomeScan (DiscoverX)) EUB0000312b PIK3CA; conditions: at 1 µM
[19] = target: T8, Phosphatidylinositol 4,5-bisphosphate 3-kinase catalytic subunit alpha isoform; assay: Selectivity interaction (NanoBRET assay (HEK293T cells)) EUB0000312b PIK3CA
[20] = target: Alpha-2A adrenergic receptor (Homo sapiens, UniProt P08913); assay: Selectivity interaction (GPCR panel (PDSP screen)) EUB0000327a ADRA2A
[21] = target: Sodium-dependent dopamine transporter (Homo sapiens, UniProt Q01959); assay: Selectivity interaction (GPCR panel (PDSP screen)) EUB0000327a SLC6A3

T2 sequence (P00533 whole entry): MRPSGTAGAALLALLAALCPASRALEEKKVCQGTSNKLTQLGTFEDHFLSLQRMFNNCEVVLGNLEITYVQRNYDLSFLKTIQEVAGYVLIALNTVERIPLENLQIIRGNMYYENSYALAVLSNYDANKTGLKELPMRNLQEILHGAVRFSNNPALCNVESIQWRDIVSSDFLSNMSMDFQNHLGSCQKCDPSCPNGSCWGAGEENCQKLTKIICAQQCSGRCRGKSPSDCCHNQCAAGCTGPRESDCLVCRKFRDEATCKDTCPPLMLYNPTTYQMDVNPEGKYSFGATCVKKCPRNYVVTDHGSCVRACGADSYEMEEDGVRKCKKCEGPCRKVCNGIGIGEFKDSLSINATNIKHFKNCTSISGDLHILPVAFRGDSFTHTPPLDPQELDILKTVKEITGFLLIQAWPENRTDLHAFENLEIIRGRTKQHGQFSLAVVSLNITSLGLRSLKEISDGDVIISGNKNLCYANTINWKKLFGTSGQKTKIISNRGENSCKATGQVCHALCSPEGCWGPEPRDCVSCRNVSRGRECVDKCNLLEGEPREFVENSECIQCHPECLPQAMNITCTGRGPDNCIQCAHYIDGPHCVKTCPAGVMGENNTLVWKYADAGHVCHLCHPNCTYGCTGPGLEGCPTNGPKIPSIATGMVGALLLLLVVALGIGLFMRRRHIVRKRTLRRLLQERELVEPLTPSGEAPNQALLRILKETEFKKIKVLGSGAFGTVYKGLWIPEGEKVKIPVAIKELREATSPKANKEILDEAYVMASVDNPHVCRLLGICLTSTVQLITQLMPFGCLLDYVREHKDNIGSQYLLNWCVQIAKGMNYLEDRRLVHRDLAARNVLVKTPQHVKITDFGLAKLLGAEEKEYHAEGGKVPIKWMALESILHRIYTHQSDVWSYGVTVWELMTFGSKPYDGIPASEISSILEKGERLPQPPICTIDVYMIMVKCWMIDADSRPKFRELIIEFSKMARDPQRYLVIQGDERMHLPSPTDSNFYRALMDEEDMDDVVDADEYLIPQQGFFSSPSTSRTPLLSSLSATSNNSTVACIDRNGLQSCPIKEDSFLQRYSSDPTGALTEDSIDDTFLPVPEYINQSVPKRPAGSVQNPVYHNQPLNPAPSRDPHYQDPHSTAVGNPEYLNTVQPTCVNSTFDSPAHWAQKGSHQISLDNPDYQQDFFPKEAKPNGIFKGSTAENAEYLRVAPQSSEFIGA
T8 sequence (P42336 whole entry, canonical isoform): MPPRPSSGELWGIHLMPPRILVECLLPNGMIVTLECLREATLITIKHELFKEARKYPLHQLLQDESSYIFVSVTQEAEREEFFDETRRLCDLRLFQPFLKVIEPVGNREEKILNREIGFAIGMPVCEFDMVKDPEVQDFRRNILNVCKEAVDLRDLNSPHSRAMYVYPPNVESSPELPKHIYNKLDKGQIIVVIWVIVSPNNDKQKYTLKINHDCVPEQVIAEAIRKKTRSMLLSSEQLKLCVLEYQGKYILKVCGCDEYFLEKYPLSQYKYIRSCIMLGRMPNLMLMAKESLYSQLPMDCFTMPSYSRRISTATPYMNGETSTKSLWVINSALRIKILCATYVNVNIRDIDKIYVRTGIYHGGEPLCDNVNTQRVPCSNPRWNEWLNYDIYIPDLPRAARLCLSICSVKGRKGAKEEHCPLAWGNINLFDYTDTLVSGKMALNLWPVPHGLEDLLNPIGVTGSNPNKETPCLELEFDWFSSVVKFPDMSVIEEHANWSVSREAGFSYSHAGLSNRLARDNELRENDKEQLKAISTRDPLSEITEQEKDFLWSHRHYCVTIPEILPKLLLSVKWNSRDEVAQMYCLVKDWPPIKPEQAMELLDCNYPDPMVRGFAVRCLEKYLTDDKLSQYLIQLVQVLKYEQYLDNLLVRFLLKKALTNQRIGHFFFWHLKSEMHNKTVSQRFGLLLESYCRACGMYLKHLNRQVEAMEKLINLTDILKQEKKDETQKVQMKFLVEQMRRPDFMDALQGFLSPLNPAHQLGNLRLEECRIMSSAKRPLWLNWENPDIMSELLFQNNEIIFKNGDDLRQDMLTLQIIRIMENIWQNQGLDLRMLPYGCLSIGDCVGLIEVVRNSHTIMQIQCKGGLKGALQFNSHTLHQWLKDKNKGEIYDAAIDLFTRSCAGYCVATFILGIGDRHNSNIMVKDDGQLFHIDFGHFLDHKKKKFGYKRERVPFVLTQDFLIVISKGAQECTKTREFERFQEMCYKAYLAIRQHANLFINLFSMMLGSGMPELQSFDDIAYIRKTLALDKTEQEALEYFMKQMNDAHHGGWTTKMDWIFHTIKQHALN
T6 sequence (Q08345 whole entry, the tested form may be a part): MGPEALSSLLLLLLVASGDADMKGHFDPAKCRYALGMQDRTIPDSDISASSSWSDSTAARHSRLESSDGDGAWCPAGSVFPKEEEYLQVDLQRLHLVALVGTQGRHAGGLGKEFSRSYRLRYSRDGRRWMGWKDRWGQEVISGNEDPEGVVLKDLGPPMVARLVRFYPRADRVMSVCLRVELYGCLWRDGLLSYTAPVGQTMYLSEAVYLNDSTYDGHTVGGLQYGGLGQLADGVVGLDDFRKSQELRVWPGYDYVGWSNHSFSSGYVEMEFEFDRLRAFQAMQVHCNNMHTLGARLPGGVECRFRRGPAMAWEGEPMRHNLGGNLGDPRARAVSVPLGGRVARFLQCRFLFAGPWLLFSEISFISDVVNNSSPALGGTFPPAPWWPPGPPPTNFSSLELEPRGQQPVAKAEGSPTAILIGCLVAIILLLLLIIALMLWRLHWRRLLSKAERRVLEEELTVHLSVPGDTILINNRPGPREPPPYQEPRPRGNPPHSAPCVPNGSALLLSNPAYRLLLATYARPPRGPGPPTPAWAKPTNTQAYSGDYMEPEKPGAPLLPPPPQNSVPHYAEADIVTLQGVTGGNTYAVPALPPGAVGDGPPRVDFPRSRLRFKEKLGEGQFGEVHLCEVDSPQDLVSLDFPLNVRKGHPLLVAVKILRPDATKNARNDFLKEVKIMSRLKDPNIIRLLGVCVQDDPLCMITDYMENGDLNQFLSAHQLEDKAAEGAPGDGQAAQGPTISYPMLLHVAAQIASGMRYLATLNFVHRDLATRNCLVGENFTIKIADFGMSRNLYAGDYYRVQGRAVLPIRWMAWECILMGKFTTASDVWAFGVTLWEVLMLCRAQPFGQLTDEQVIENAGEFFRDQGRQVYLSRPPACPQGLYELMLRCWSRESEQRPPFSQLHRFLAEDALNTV
T7 sequence (P23458 whole entry): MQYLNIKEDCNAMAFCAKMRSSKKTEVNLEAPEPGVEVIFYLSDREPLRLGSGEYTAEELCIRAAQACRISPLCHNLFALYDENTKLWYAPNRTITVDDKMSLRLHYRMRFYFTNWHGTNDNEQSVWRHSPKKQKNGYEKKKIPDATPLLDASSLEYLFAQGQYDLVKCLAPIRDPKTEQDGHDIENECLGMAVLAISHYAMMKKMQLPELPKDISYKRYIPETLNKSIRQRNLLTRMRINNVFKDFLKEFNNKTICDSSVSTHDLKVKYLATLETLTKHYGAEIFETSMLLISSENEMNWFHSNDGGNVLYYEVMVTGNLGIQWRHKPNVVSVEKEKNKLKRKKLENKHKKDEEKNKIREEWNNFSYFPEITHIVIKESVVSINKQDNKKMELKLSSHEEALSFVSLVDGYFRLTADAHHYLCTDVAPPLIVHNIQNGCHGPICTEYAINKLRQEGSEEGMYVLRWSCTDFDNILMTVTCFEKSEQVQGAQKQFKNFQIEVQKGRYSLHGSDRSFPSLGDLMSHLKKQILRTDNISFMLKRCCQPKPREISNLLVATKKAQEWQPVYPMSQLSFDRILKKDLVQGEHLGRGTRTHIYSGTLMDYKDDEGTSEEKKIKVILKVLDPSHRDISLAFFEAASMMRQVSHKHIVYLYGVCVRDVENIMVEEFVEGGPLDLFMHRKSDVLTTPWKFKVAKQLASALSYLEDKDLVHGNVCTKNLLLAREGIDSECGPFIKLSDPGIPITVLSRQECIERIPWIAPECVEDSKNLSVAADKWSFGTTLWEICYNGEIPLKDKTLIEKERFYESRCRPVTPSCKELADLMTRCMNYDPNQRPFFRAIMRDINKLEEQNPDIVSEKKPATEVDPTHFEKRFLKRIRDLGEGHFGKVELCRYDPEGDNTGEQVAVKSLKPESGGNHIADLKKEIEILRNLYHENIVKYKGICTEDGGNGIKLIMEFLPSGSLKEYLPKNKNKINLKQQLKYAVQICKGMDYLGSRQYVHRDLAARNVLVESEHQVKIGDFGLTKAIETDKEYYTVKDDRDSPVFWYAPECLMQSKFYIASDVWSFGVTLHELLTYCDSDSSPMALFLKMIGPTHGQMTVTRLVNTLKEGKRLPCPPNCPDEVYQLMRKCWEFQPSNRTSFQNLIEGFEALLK
T5 sequence (Q6P2M8 whole entry): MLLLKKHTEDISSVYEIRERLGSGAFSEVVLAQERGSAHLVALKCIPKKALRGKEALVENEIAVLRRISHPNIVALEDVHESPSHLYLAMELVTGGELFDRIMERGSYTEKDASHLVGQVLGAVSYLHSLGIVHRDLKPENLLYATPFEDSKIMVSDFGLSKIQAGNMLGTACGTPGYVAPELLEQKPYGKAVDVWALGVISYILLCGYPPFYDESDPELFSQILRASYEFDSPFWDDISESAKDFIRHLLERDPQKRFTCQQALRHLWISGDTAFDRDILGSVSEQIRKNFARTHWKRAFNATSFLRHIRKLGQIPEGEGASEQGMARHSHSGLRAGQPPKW

% of control [1]: 0%
Kd [2]: > 10 µM
% of control [3]: 0%
% of control [4]: 4.9%
Kd [5]: > 10 µM
% of control [6]: 0%
% of control [7]: 0%
Kd [8]: > 10 µM
% of control [9]: 1.7%
Kd [10]: > 10 µM
Compound: CCCCN(Cc1ccccc1)C(=O)c1ccc(S(=O)(=O)Nc2ccccc2)cc1

% of control [11]: 39.5%
IC50 [12]: > 20 µM
% of control [13]: 39.6%
% of control [14]: 36.7%
IC50 [15]: > 20 µM
% of control [16]: 38.6%
IC50 [17]: > 20 µM
% of control [18]: 33.9%
IC50 [19]: > 20 µM
Compound: Cc1cnc(-c2cc(Cl)ccc2F)cc1-n1c(=O)n(CC(N)=O)c2cnccc21 [TP-008]

Ki [20]: > 10 µM
Ki [21]: > 10 µM
Compound: O=C(NNS(=O)(=O)c1ccccc1)c1cc(-c2ccnnc2)ccc1F [WM-2474]
